In ChEMBL document CHEMBL6087483 (J Med Chem, 2025):

Experiments:
[1] = system: HCT-116; assay: Antiproliferative activity against MTAP deleted human HCT-116 cells assessed as inhibition of cell viability by luminescence based cell titer-glo assay; type: functional
[2] = Selectivity ratio of IC50 for antiproliferative activity against MTAP wild type human HCT-116 cells to IC50 for antiproliferative activity against MTAP deleted human HCT-116 cells; type: functional
[3] = Volume of distribution at steady state in male Sprague-Dawley rat at 5 mg/kg, po or 1 mg/kg, iv measured upto 24 hrs; type: ADME, organism-based; settings: in vivo
[4] = Oral bioavailability in male CD-1 mouse at 5 mg/kg or 1 mg/kg, iv measured upto 24 hrs; type: ADME, organism-based; settings: in vivo
[5] = Volume of distribution at steady state in male CD-1 mouse at 5 mg/kg, po or 1 mg/kg, iv measured upto 24 hrs; type: ADME, organism-based; settings: in vivo
[6] = AUC (0 to 24 hrs) in male Sprague-Dawley rat at 5 mg/kg, po or 1 mg/kg, iv measured upto 24 hrs; type: ADME, organism-based; settings: in vivo
[7] = system: HCT-116; assay: Antiproliferative activity against MTAP wild type human HCT-116 cells assessed as inhibition of cell viability by luminescence based cell titer-glo assay; type: functional
[8] = AUC (0 to 24 hrs) in male CD-1 mouse at 5 mg/kg, po or 1 mg/kg, iv measured upto 24 hrs; type: ADME, organism-based; settings: in vivo
[9] = Cmax in male CD-1 mouse at 5 mg/kg, po or 1 mg/kg, iv measured upto 24 hrs; type: ADME, organism-based; settings: in vivo
[10] = Cmax in male Sprague-Dawley rat at 5 mg/kg, po or 1 mg/kg, iv measured upto 24 hrs; type: ADME, organism-based; settings: in vivo
[11] = Oral bioavailability in male Sprague-Dawley rat at 5 mg/kg or 1 mg/kg, iv measured upto 24 hrs; type: ADME, organism-based; settings: in vivo

| SMILES | IC50 [1] [nM] | IC50 [7] [nM] | other results |
| --- | --- | --- | --- |
| CN(C(=O)c1ccc2nc(N)c3c(c2c1)COC3)[C@@H]1CCCN(c2ccccc2)C1 | > 10000 | – | – |
| CN(C(=O)c1ccc2nc(N)c3c(c2c1)COC3)[C@H]1CCN(c2ccccc2)C1 | 2000 | – | – |
| Cc1cc2cc(C(=O)N(Cc3ccc(C(F)(F)F)cn3)C(C)c3ncccn3)ccc2nc1N (stereo unspecified) | – | – | Ratio IC50 [2]: 31 |
| Nc1nc2ccc(C(=O)N3C[C@H]4C[C@@H]3CN4c3ccccc3)cc2c2c1COC2 | 2450 | – | – |
| Cc1cc(NC(=O)C(=O)N2C[C@@H](C)CC[C@@H]2c2ccc3scnc3c2)cnc1N | – | – | Ratio IC50 [2]: 13 |

Second part, led by results:

| IC50 [1] [nM] | IC50 [7] [nM] | SMILES | other results |
| --- | --- | --- | --- |
| 1570 | – | CN(C(=O)c1ccc2nc(N)c3c(c2c1)COC3)[C@@H]1CCN(c2ccc(C3CC3)cc2)C1 | – |
| 719 | – | Nc1nc2ccc(C(=O)N3C[C@@H]4C[C@H]3CN4c3ccccc3)cc2c2c1COC2 | – |
| 7 | 1180 | Cc1cc2nc(N)c3c(c2cc1C(=O)N(C)[C@@H]1CCN(c2ccc(C#N)cc2)C1)COC3 | Vdss [3]: 1.29 L/kg; bioavailability [4]: 83.1%; Ratio IC50 [2]: 169; Vdss [5]: 2.84 L/kg; AUC [6]: 2310 ng·h/mL; AUC [8]: 1720 ng·h/mL; Cmax [9]: 611 ng/mL; Cmax [10]: 496 ng/mL; bioavailability [11]: 46.1% |
| 313 | 630 | CN(C(=O)c1ccc2nc(N)c3c(c2c1)COC3)[C@@H]1CCN(c2ccc3cnn(C)c3c2)C1 | – |
| 641 | > 10000 | CN(C(=O)c1ccc2nc(N)c3c(c2c1)COC3)[C@@H]1CCN(c2ccc(S(C)(=O)=O)cc2)C1 | – |
| 211 | > 10000 | CN(C(=O)c1ccc2nc(N)c3c(c2c1)COC3)[C@@H]1CCN(c2ccc(-c3cnn(C)c3)cc2)C1 | – |
| 317 | 6620 | CN(C(=O)c1ccc2nc(N)c3c(c2c1)COC3)[C@@H]1CCN(c2cccc(C#N)c2)C1 | – |
